Source: the supplement of paper PMC10307832

Assays:
Assay in all cases: relative viability (nuclei count vs DMSO), 5 days (fraction); higher = more cells survive
[1] = compound: O[C@@H](COc1cccc2ncccc12)CN1CCN([C@@H]2c3ccccc3[C@@H]3[C@H](c4ccccc42)C3(F)F)CC1 [Zosuquidar] + C[C@@H](Oc1cc(-c2cnn(C3CCNCC3)c2)cnc1N)c1c(Cl)ccc(F)c1Cl [Crizotinib] (partner 1 µM)
Outline: (§1)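 Values are medians from duplicate plates. Each reflects relative viability, defined as the nuclei count of treated wells over that of vehicle wells. Lung cancer cell lines in 1536-well plates were pin-tool dosed one day after seeding with one drug alone or with a fixed anchor-drug dose plus five library-drug doses (not always all listed) in √10 steps, then fixed, stained and imaged at 4× after 5 days.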

[2] = compound: O[C@@H](COc1cccc2ncccc12)CN1CCN([C@@H]2c3ccccc3[C@@H]3[C@H](c4ccccc42)C3(F)F)CC1 [Zosuquidar] + CC(=O)Nc1cccc(-n2c(=O)n(C3CC3)c(=O)c3c(Nc4ccc(I)cc4F)n(C)c(=O)c(C)c32)c1 [Trametinib] (partner 0.02 µM)
Outline: as §1

[3] = compound: O[C@@H](COc1cccc2ncccc12)CN1CCN([C@@H]2c3ccccc3[C@@H]3[C@H](c4ccccc42)C3(F)F)CC1 [Zosuquidar] + CC(=O)c1c(C)c2cnc(Nc3ccc(N4CCNCC4)cn3)nc2n(C2CCCC2)c1=O [Palbociclib] (partner 0.5 µM)
Outline: as §1

[4] = compound: C1=CC(=CC=C1NC(=S)NNC2=C(C=C(C=C2[N+](=O)[O-])C(F)(F)F)[N+](=O)[O-])F [Kobe2602] + CS(=O)(=O)CCNCc1ccc(-c2ccc3ncnc(Nc4ccc(OCc5cccc(F)c5)c(Cl)c4)c3c2)o1 [Lapatinib] (partner 2 µM)
Outline: as §1

Cell Line	relative viability ([1]; first compound 0.01 µM)	relative viability ([1]; first compound 0.03162 µM)	relative viability ([1]; first compound 0.1 µM)	relative viability ([1]; first compound 0.3162 µM)	relative viability ([1]; first compound 1 µM)	relative viability ([2]; first compound 0.01 µM)	relative viability ([2]; first compound 0.03162 µM)	relative viability ([2]; first compound 0.1 µM)	relative viability ([2]; first compound 0.3162 µM)	relative viability ([2]; first compound 1 µM)	relative viability ([3]; first compound 0.01 µM)	relative viability ([3]; first compound 0.03162 µM)	relative viability ([3]; first compound 0.1 µM)	relative viability ([3]; first compound 0.3162 µM)	relative viability ([3]; first compound 1 µM)	relative viability ([4]; first compound 0.2 µM)	relative viability ([4]; first compound 0.6325 µM)	relative viability ([4]; first compound 6.325 µM)	relative viability ([4]; first compound 20 µM)	relative viability ([4]; first compound 2 µM)
NCI-H1666	1.02	0.975	1.18	0.986	1.08	0.833	1.03	0.859	0.954	0.811	0.56	0.715	0.668	0.757	0.648	0.639	0.659	0.468	0.592	
HCC-44	0.761	0.828	0.84	0.846	0.804	1.01	0.999	0.96	1.09	1.13	0.974	1.04	0.944	1.02	0.956	1	1.05	1.03	0.954	1.01
NCI-H23	0.467	0.495	0.512	0.534	0.478	0.363		0.411	0.441	0.402	0.45		0.516	0.578	0.524	0.999	1.36	1.05	1.07	1.08
SW 1573	0.873	0.728	0.791	0.775	0.833	0.613	0.605	0.549	0.628	0.544	0.44	0.4	0.541	0.405	0.372	1.34	1.25	1.1	1.14	1.05
LU99A	0.499	0.671	0.484	0.607	0.571	0.55	0.597	0.522	0.537	0.551	0.342	0.37	0.473	0.459	0.353	0.989	0.921	0.97	1.07	0.959
SK-LU-1	0.974	0.981	1.1	0.932	0.911	0.506	0.578	0.488	0.489	0.519	0.396	0.381	0.408	0.432	0.396	0.859	0.88	0.859	0.817	0.92
NCI-H2126	0.92	0.987	0.911	1.04	1.07	0.505	0.577	0.536	0.573	0.599	0.349	0.339	0.351	0.341	0.351	0.751	0.775	0.725	0.759	0.778
LXF-289	0.768	0.861	0.799	0.816	0.876	0.614	0.703	0.675	0.727	0.654	0.576	0.599	0.614	0.582	0.584	0.872	0.891	0.874	0.873	0.88
BEN	1.01	0.923	0.827	0.821	0.77	1.21	1.16	0.885	0.999	0.927	0.467	0.491	0.456	0.455	0.489	0.671	0.935	0.69	0.811	0.782
LCLC-97TM1	0.389	0.327		0.429	0.339	0.171	0.19		0.21	0.206	0.227	0.274		0.193	0.215	1.05	1.01	0.965	0.893	0.817
NCI-H1993	0.864	0.859	0.789	1.01	0.881	0.483	0.5		0.591	0.508	0.653	0.603		0.617	0.615	0.718	0.727	0.814	0.875	0.783
HCC-78	0.352	0.321		0.362	0.322	0.799			1	0.759	0.477	0.545		0.492	0.462	1.02	0.903	0.418	1.18	
NCI-H1975	0.923	0.941	1.01	0.924	1.09	0.431	0.351	0.299	0.528	0.337	0.587	0.475	0.582	0.714	0.531	0.886	0.956	0.756	0.852	0.767
